target: human kinase Mps-1 (Homo sapiens (Human), UniProt P33981); assay: Mps-1 kinase assay (TR-FRET); format: biochemical; conditions: N-terminally GST-tagged human full length recombinant Mps-1; 10 μM ATP; 1 μM biotinylated peptide substrate; read-out: Mps1 IC50
Summary of the method: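 Read-out: TR-FRET from Europium-labelled anti-phospho(Ser/Thr) antibody to SA-XLent after 1 h detection incubation at 22° C. Inhibition of kinase activity measured.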

Chain of human kinase Mps-1 (P33981 whole entry): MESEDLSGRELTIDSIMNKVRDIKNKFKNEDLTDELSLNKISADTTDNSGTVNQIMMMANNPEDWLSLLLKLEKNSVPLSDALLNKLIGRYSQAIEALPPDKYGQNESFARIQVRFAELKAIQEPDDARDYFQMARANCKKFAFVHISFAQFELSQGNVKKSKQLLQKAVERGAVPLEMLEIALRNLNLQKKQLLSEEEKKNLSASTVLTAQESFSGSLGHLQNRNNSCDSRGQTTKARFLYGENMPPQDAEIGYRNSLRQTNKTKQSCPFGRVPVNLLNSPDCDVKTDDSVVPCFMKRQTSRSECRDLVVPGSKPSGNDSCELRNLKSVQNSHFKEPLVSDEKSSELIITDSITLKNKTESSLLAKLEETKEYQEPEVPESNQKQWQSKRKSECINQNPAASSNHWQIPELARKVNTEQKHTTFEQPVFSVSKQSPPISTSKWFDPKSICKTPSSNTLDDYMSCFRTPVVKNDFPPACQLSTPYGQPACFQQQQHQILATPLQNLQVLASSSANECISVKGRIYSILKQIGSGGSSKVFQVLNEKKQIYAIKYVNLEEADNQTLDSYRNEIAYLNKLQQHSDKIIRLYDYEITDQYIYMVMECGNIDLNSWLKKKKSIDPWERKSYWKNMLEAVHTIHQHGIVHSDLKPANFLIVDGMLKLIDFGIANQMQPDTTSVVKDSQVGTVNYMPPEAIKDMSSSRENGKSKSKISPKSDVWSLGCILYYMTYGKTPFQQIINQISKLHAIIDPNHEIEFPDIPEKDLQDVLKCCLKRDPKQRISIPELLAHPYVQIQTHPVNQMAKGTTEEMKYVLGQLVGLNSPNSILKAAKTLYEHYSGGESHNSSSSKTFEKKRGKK

Structure (SMILES) | IC50 [nM]
COc1ccc(C(=O)c2cc(NCCC(F)(F)F)c3ncn(-c4ccc(C(=O)NC5CC5)c(C)c4)c3c2)cc1F [Example 101, N-cyclopropyl-4-{6-(3-fluoro-4-methoxybenzoyl)-4-[(3,3,3-trifluoropropyl)amino]-1H-benzimidazol-1-yl}-2-methylbenzamide] | 6.4
COc1ccc(C(O)c2cc(NCCC(F)(F)F)c3ncn(-c4ccc(C(=O)NC5CC5)c(C)c4)c3c2)cc1F (centres unmarked) [Example 102, N-cyclopropyl-4-{6-[(3-fluoro-4-methoxyphenyl)(hydroxy)methyl]-4-[(3,3,3-trifluoropropyl)amino]-1H-benzimidazol-1-yl}-2-methylbenzamide] | 1.8
C=C(c1ccc(OC)c(F)c1)c1cc(NCCC(F)(F)F)c2ncn(-c3ccc(C(=O)NC4CC4)c(C)c3)c2c1 [Example 104, N-cyclopropyl-4-{6-[1-(3-fluoro-4-methoxyphenyl)vinyl]-4-[(3,3,3-trifluoropropyl)amino]-1H-benzimidazol-1-yl}-2-methylbenzamide] | 2.1
COc1ccc(Cc2cc(NCCC(F)(F)F)c3ncn(-c4ccc(C(=O)NC5CC5)c(C)c4)c3c2)cc1F [Example 106, N-cyclopropyl-4-{6-(3-fluoro-4-methoxybenzyl)-4-[(3,3,3-trifluoropropyl)amino]-1H-benzimidazol-1-yl}-2-methylbenzamide] | 0.9
Cc1ccc(F)cc1Oc1cc(NCCC(F)(F)F)c2ncn(-c3ccc(C(=O)NC4CC4)c(C)c3)c2c1 [Example 107, N-cyclopropyl-4-{6-(5-fluoro-2-methylphenoxy)-4-[(3,3,3-trifluoropropyl)amino]-1H-benzimidazol-1-yl}-2-methylbenzamide] | 5.3
Cc1cc(-n2cnc3c(NCCC(F)(F)F)cc(C(=O)c4ccc(O)c(F)c4)cc32)ccc1C(=O)NC1CC1 [Example 108, N-cyclopropyl-4-{6-(3-fluoro-4-hydroxybenzoyl)-4-[(3,3,3-trifluoropropyl)amino]-1H-benzimidazol-1-yl}-2-methylbenzamide] | 17
Cc1cc(-n2cnc3c(NCCC(F)(F)F)cc(Oc4cccc(C(F)F)c4)cc32)ccc1C(=O)NC1CC1 [Example 109, N-cyclopropyl-4-{6-[3-(difluoromethyl)phenoxy]-4-[(3,3,3-trifluoropropyl)amino]-1H-benzimidazol-1-yl}-2-methylbenzamide] | 2.8
COc1ccccc1C(=O)c1cc(NCCC(F)(F)F)c2ncn(-c3ccc(C(=O)NC4CC4)c(C)c3)c2c1 [Example 110, N-cyclopropyl-4-{6-(2-methoxybenzoyl)-4-[(3,3,3-trifluoropropyl)amino]-1H-benzimidazol-1-yl}-2-methylbenzamide] | 12
Cc1cc(-n2cnc3c(NCCC(F)(F)F)cc(Oc4cccc(O)c4)cc32)ccc1C(=O)NC1CC1 [Example 111, N-cyclopropyl-4-{6-(3-hydroxyphenoxy)-4-[(3,3,3-trifluoropropyl)amino]-1H-benzimidazol-1-yl}-2-methylbenzamide] | 0.6
CNC(=O)c1ccc(-n2cnc3c(NCC4CCOCC4)cc(Oc4ccc(O)c(F)c4)cc32)cc1C [Example 112, 4-{6-(3-fluoro-4-hydroxyphenoxy)-4-[(tetrahydro-2H-pyran-4-ylmethyl)amino]-1H-benzimidazol-1-yl}-N,2-dimethylbenzamid] | 3.6
CCNC(=O)c1ccc(-n2cnc3c(NCC4CCOCC4)cc(Oc4ccc(O)c(F)c4)cc32)cc1C [Example 113A, N-ethyl-4-{6-(3-fluoro-4-hydroxyphenoxy)-4-[(tetrahydro-2H-pyran-4-ylmethyl)amino]-1H-benzimidazol-1-yl}-2-methylbenzamide] | 6.3
CCNC(=O)c1ccc(-n2cnc3c(NCC4CCOCC4)cc(Oc4ccc(OC)c(SC)c4)cc32)cc1C [Example 113B, N-ethyl-4-{6-[4-methoxy-3-(methylsulfanyl)phenoxy]-4-[(tetrahydro-2H-pyran-4-ylmethyl)amino]-1H-benzimidazol-1-yl}-2-methylbenzamide] | 54
Cc1cc(-n2cnc3c(NCC4CCOCC4)cc(Oc4ccc(O)c(F)c4)cc32)ccc1C(=O)NC1CC1 [Example 114A, N-cyclopropyl-4-{6-(3-fluoro-4-hydroxyphenoxy)-4-[(tetrahydro-2H-pyran-4-ylmethyl)amino]-1H-benzimidazol-1-yl}-2-methylbenzamide] | 0.7
COc1ccc(Oc2cc(NCC3CCOCC3)c3ncn(-c4ccc(C(=O)NC5CC5)c(C)c4)c3c2)cc1SC [Example 114B, N-cyclopropyl-4-{6-[4-methoxy-3-(methylsulfanyl)phenoxy]-4-[(tetrahydro-2H-pyran-4-ylmethyl)amino]-1H-benzimidazol-1-yl}-2-methylbenzamide] | 6.7
CNC(=O)c1ccc(-n2cnc3c(NCC4CCOCC4)cc(Oc4ccc(O)cc4F)cc32)cc1C [Example 115A, 4-{6-(2-fluoro-4-hydroxyphenoxy)-4-[(tetrahydro-2H-pyran-4-ylmethyl)amino]-1H-benzimidazol-1-yl}-N,2-dimethylbenzamide] | 7.3
CNC(=O)c1ccc(-n2cnc3c(NCC4CCOCC4)cc(Oc4ccc(OC)cc4SC)cc32)cc1C [Example 115B, 4-{6-[4-methoxy-2-(methylsulfanyl)phenoxy]-4-[(tetrahydro-2H-pyran-4-ylmethyl)amino]-1H-benzimidazol-1-yl}-N,2-dimethylbenzamide] | 28.9
Cc1cc(-n2cnc3c(NCC4CCOCC4)cc(Oc4ccc(O)cc4F)cc32)ccc1C(=O)NC1CC1 [Example 116A, N-cyclopropyl-4-{6-(2-fluoro-4-hydroxyphenoxy)-4-[(tetrahydro-2H-pyran-4-ylmethyl)amino]-1H-benzimidazol-1-yl}-2-methylbenzamide] | 1
COc1ccc(Oc2cc(NCC3CCOCC3)c3ncn(-c4ccc(C(=O)NC5CC5)c(C)c4)c3c2)c(SC)c1 [Example 116B, N-cyclopropyl-4-{6-[4-methoxy-2-(methylsulfanyl)phenoxy]-4-[(tetrahydro-2H-pyran-4-ylmethyl)amino]-1H-benzimidazol-1-yl}-2-methylbenzamide] | 2.9
CCNC(=O)c1ccc(-n2cnc3c(NCC4CCOCC4)cc(Oc4ccc(O)cc4F)cc32)cc1C [Example 117A, N-ethyl-4-{6-(2-fluoro-4-hydroxyphenoxy)-4-[(tetrahydro-2H-pyran-4-ylmethyl)amino]-1H-benzimidazol-1-yl}-2-methylbenzamide] | 6.7
CCNC(=O)c1ccc(-n2cnc3c(NCC4CCOCC4)cc(Oc4ccc(OC)cc4SC)cc32)cc1C [Example 117B, N-ethyl-4-[6-{4-methoxy-2-(methylsulfanyl)phenoxy]-4-[(tetrahydro-2H-pyran-4-ylmethyl)amino]-1H-benzimidazol-1-yl}-2-methylbenzamide] | 25.8

From US9388140B2, “Substituted benzimidazoles” (priority 2011, dated 2016)
